In patent US10758522B2, “Small molecule analogs of the nemo binding peptide” (THE SCRIPPS RESEARCH INSTITUTE, priority 2015, dated 2020):

Key:
NEMO = NEMO (Homo sapiens, UniProt Q9Y6K9); conditions: cited from earlier work; for IC50: read-out: IC50, affinity to NEMO
IKKβ-NEMO interaction = assay: Immunoprecipitation of NEMO and IKKβ immunoblot in Raw 264.7 macrophages and HEK293 cells; assay type: cell-based; conditions: Raw 264.7 macrophages / HEK293; mimetics 100 μM, 8K-NBD 400 μM
Experimental: The NBD mimetics reduce the interaction between IKKg (NEMO) and IKKß. The indicated concentrations of the drugs were added to HEK 293 or Raw 264.7 cells and cell extracts prepared 30 minutes later. Following immunoprecipitation (IP) of NEMO, the Western was probed for IKKß.
After treatment with the mimetics or NBD peptide, NEMO was immunoprecipitated by an anti-NEMO antibody and IKKβ was immunoblotted to determine the binding of IKKβ to NEMO.
HEK293 or Raw264.7 cells were seeded at 1×10^6 cells/well in 6-well plates and treated with vehicle, small molecule or NBD peptide for indicated time. Cells were lysed in NP-40 lysis buffer supplemented with 1× protease inhibitor cocktails (sigma). Protein was immunoprecipitated by incubating 150 μg of lysate with 1 μg of anti-NEMO antibody (Santa Cruz) on a rotating shaker at 4° C. for 4 hrs, followed by incubation with 20 ul of Protein A agarose beads (ThermoFisher) for 1 hr. Beads were washed in NP40 buffer 3 times and PBS once. Protein was then denatured in SDS-sample buffer and resolved by MINI-PROTEAN TGX 4-15% SDS-PAGE. Anti-IKKβ (1:1000 CST) was used to assess binding of IKKβ to NEMO and anti-NEMO (1:1000 CST) or IgG were used to as a loading control.

NF-κB target genes = assay: qRT-PCR of NF-κB target genes in LPS-stimulated Raw 264.7 cells; assay type: cell-based, mouse; conditions: for transcription of NF-κB target genes (COX2, IL-6, IL-1β, TNF-α, IκBα, iNOS): Raw 264.7, 1 ug/ml LPS 2 hr, mimetics 50 μM, IKKi VII 2 μM, 8K-NBD 400 μM
Experimental: Effect of the NBD mimetics on expression of NF-kB regulated genes in the Raw mouse macrophage cell line. Treatment of the Raw cells with the indicated drugs prior to addition of LPS reduced NF-kB-mediated gene expression as measured by RT-PCR.
To determine whether the inhibitory effect of the mimetics is TNF-α-dependent, LPS-mediated NF-κB activation via TLR4 was examined to determine a broader inhibitory effect of the novel NBD mimetics. NF-κB was stimulated in Raw 264.7 by 1 ug/ml of LPS for 2 hr and genes transcriptionally regulated by NF-κB were determined by qRT-PCR analysis. Both an IKK active site inhibitor IKKi VII (2 μM) and the 8K-NBD peptide (400 μM) were included as positive controls and the expression of COX2, IL-6, IL-1β, TNF-α, IκBα and iNOS were assessed.
Raw 264.7 cells were treated with a 50 μM solution of the SR compound for 30 minutes, and then the mRNA was harvested 2 hours after addition of 1 μg/mL LPS.
Snap frozen tissues were preserved in RNAlater RNA stabilization solution (ThermoFisher) before processed. Total RNA was extracted from cells or tissues using TRIZOL reagent (Life Technologies) and 1500 ng of messenger RNA (mRNA) was subjected to synthesize complementary DNA (cDNA) using SuperScript VILO cDNA synthesis kit. qRT-PCR was performed in a StepOnePlus Real-Time PCR system using Platinum SYBR Green qPCR SuperMix-UDG (ThermoFisher). Target gene expression was calculated using the comparative CT method (ΔΔCT) and normalized to an internal control gene Actb (β-actin). Primers used are as follows: Ptgs2 (COX-2) forward: […]; Ptgs2 (COX-2) reverse: […]; Nfkbia (IκBα) forward: […]; Nfkbia (IκBα) reverse: […]; Il1b (IL-1β) forward: […]; Il1b (IL-1β) reverse: […]; Nos2 (iNOS) forward: […]; Nos2 (iNOS) reverse: […]; Tnf (TNF) forward: […]; Tnf (TNF) reverse: […]; Il6 (IL-6) forward: […]; Il6 (IL-6) reverse: […]. Actb (β-actin) forward: […]; Actb (β-actin) reverse: […];

IL-6 = IL-6 ELISA in LPS-stimulated Raw 264.7 cells; assay type: cell-based, mouse; conditions: Raw 264.7, 1 ug/ml LPS, supernatant at 24 hr
Experimental: To confirm the qRT-PCR result, LPS-mediated IL-6 production was analyzed in Raw 264.7 cells by ELISA. […] Moreover, SR11481 appears to work more efficiently at a lower concentration around 25 μM. Taken together, four lead compounds were identified through seven rounds of optimization and modification.
Enzyme-Linked Immunosorbent Assay (ELISA). Raw264.7 cells were grown in a 96-well plate and pretreated with vehicle, IKKi VII (2 uM) and small molecules (at indicated concentration) for 1 hr, followed by the stimulation with 1 ug/ml of LPS. Supernatant was collected 24 hr later for ELISA analysis. IL-6 concentration was measured using a mouse IL-6 ELISA kit (BD) according to the manufacturer's instructions.

[1] = Pharmacokinetics study after ip injection; assay type: in vivo; conditions: mice, 10 mg/kg ip, 2 hr
Experimental: To determine the stability of the NBD mimetics in vivo, the pharmacokinetics of the compounds was determined in serum following ip injection.
The pharmacokinetic profiles of the NBD mimetics were determined in male C57BL/6J mice (n=3). The drugs were formulated in 10:10:80 of DMSO:Tween 80:water and were dosed by intraperitoneal injection at a final dose of 10 mg/kg. Blood, brain, muscle, spleen, and liver were collected 2 hr post-treatment and were analyzed by mass spectrometry by following the protocol described in ref. 215 (42).

[2] = molecular target: T1, IKK complex (IKKß, IKKα and NEMO) (Homo sapiens, UniProt Q9Y6K9); assay: Co-immunoprecipitation of NEMO with IKKß in 293 cells; assay type: cell-based; conditions: Zinc-5 at 4 hours, Zinc-13 at 1 hour, NBD peptide at 4 hours
T1 construct: analyzed by Western blot for the level of co-precipitated NEMO; endogenous in cells; host or cells: 293 (HEK293) cells
T1 sequence (Q9Y6K9 whole entry, one chain of several): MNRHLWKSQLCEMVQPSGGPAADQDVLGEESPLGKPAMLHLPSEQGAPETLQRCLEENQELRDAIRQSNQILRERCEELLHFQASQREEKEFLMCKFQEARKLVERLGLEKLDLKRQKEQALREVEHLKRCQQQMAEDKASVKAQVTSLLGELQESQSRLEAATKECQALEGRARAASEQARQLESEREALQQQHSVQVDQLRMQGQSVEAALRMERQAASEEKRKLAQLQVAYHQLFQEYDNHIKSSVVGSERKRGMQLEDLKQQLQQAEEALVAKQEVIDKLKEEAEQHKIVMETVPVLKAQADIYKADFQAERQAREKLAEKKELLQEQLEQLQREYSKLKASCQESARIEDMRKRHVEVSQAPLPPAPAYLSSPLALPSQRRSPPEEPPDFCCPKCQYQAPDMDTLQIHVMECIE
From the text: FIG. 8 is a bar graph showing the inhibition of TNFα by NBDA-1 (Zinc-13). […] In addition, we have examined the ability of the compounds to disrupt the IKK complex, comprised of IKKß, IKKα and NEMO.
A non-functional, related compound Zinc-7 had no effect.

[3] = system: embryonic fibroblasts from Ercc1−/− mice; assay: Senescence rescue assay in ERCC1-deficient murine embryonic fibroblasts (SA-ß-gal); assay type: cell-based, mouse; conditions: oxidative stress conditions (20% O2)
From the text: In an attempt to identify new drugs able to improve healthspan, we have developed an assay for screening for drugs able to rescue primary “aged” fibroblasts from senescence. This assay uses murine embryonic fibroblasts (MEFs) from mice with accelerated aging due to a deficiency in an important DNA repair pathway, ERCC1-XPF. These MEFs undergo rapid senescence in culture, especially when grown under the high oxygen conditions that confers oxidative stress (FIGS. 18 and 19).

NF-κB = assay: Firefly luciferase NF-κB reporter assay in TNF-α-stimulated HEK293 cells; assay type: cell-based; conditions: 293 NF-κB luciferase reporter cells, 10 ng/ml TNF-α; compound 12909780 at 100 μM
Experimental: This model was used to screen a subset of the drug-like ZINC 8.0 database set (˜900,000 compounds) (Irwin et al., 2005). We were able to identify 161 hits that matched at least 6 features out of eight of the pharmacophore model. […] Two compounds termed NBDA-1 (Zinc-13) and NBDA-2 (Zinc-5), successfully passed these filters (See FIG. 4) and were purchased for biological testing. The compounds were then tested for ability to inhibit TNF-alpha-mediated induction of NF-κB activity in a 293 cells stably modified with a NF-κB luciferase reporter.
The activation of NF-κB was then quantitated by measuring the level of luciferase activity. […] Also, protein extracts were prepared from the same cells and the level of phospho-IkB determined, a marker of IKK activity.
To test if the small molecules identified by the in silico screen inhibit NF-κB activation, a HEK293 cell line stably expressing a luciferase reporter driven by a synthetic, NF-κB-dependent promoter was utilized. To induce NF-κB activation, cells were treated with 10 ng/ml of TNF-α and harvested three hours post-treatment for analysis of luciferase activity. […] To determine if compound 12909780 inhibited NF-κB in a dose dependent manner, concentrations were tested at 0, 6.25, 25, 50 and 100 μM.
HEK293 cells stably transfected with luciferase reporter plasmid driven by NF-κB were seeded in 96-well plate in triplicate and pretreated with DMSO or varying small molecules at indicated concentration for 30 min, followed by the stimulation of 10 ng/ml of TNFα for 3 hr. Cell were washed with PBS once and harvested in passive lysis buffer. Luciferase assay (Promega) was performed using a luminometer according to the manufacturer's instructions.

Chain of NEMO (Q9Y6K9 whole entry, species assumed): as the sequence (Q9Y6K9 whole entry, one chain of several) above

## mutated 11-mer NBD peptide (735-745): 11-mer NBD peptide with substitutions of arginine for W741 and W739 (TALDRSRLQTE; NEMO binding domain; UniProt O14920 735-745, looked up, variant W739R W741R)
NEMO; W741 and W739 substituted by arginine
  binding to NEMO: unable to bind to NEMO

## O=C(COC(=O)Cc1cc(F)cc(F)c1)Nc1ccc(Cl)cn1 [SR11481, 2-((5-chloropyridin-2-yl)amino)-2-oxoethyl 2-(3,5-difluorophenyl)acetate]
IKKβ-NEMO interaction
  disruption of IKKβ-NEMO interaction (NEMO IP, IKKβ blot): disruption of the association between NEMO and IKK-β
NF-κB target genes
  transcription of NF-κB target genes (COX2, IL-6, IL-1β, TNF-α, IκBα, iNOS): failed to suppress all NF-κB target genes
IL-6
  LPS-mediated mIL-6 production (ELISA): reduction in the accumulation of IL-6 protein at 24 hr
[1]
  stability in serum after ip injection: extremely unstable with undetectable levels at 2 hr

## O=C(c1ccc(Nc2nccc(-c3cc4ccccc4s3)n2)cc1)N1CCC(N2CCCC2)CC1 [IKKi VII, reference compound]
NF-κB target genes
  transcription of NF-κB target genes (COX2, IL-6, IL-1β, TNF-α, IκBα, iNOS): able to inhibit most NF-κB target gene expression
NF-κB target genes; Raw 264.7, LPS
  iNOS expression: failed to downregulate iNOS expression

## O=C(COC(=O)c1c2ccccc2cc2ccccc12)Nc1ncc(C(F)(F)F)cc1Cl [ZINC7, anthracene-9-carboxylic-acid-[2-[[3-chloro-5-(trifluoromethyl)-2-pyridyl]amino]-2-keto-ethyl]-ester]
[2]
  level of NEMO co-immunoprecipitated with IKKß: had no effect

## CC(=O)Oc1ccccc1C(=O)O [aspirin]
[3]
  senescence (SA-ß-gal staining) of ERCC1-deficient MEFs: most effective for rescuing senescence

## O=C(COCCc1cc(F)cc(F)c1)Nc1ccc(Cl)cn1 [SR12454, N-(5-chloropyridin-2-yl)-2-(3,5-difluorophenethoxy)acetamide]
IKKβ-NEMO interaction
  disruption of IKKβ-NEMO interaction (NEMO IP, IKKβ blot): disruption of the association between NEMO and IKK-β
NF-κB target genes
  transcription of NF-κB target genes (COX2, IL-6, IL-1β, TNF-α, IκBα, iNOS): significantly downregulate the transcription of all NF-κB target genes tested
IL-6
  LPS-mediated mIL-6 production (ELISA): decreasing by half at 25 μM
[1]
  stability in serum after ip injection: moderate stability

## CC(Cc1ccc(O)c(O)c1)C(C)Cc1ccc(O)c(O)c1 (centres unmarked) [NDGA]
[3]
  senescence (SA-ß-gal staining) of ERCC1-deficient MEFs: most effective for rescuing senescence

## traditional 11 amino acid NEMO binding domain peptide of IKKβ, amino acids 735-745, TALDWSWLQTE [11-mer NBD peptide]
NEMO
  IC50: ~100 µM

## IKKβ-derived peptide (701-746): longer IKKβ-derived peptide (701-746) containing all residues and domains (PAKKSEELVAEAHNLCTLLENAIQDTVREQDQSFTALDWSWLQTEE; UniProt O14920 701-746, looked up, fragment)
NEMO
  IC50: ~0.01 µM

## O=C(COC(=O)Cc1ccccc1)Nc1ncc(Cl)cc1Cl [ZINC9, 2-phenylacetic-acid-[2-[(3,5-dichloro-2-pyridyl)amino]-2-keto-ethyl]-ester]
NF-κB
  inhibition of TNF-α-induced NF-κB activation (luciferase reporter), in words: lowered NF-κB activity robustly
